# Test results taken from US20050267020A1, “Polypeptides derived from inducible hsp70 and pharmaceutical compositions containing the same” (priority 2001, published 2005).
# Legend:
# HHD mice = test: Generation of CTL in HLA-A*0201 transgenic HHD mice (immunogenicity); format: in vivo, mouse
# Protocol: Generation of CTL in HLA-transgenic mice. HLA-transgenic mice were injected subcutaneously at the base of the tail with 100 μg of peptide emulsified in incomplete Freund's adjuvant (IFA) in the presence of 140 μg of the I-A^b restricted HBVcore-derived T-helper epitope (128-140; sequence TPPAYRPPNAPIL). After 11 days, spleen cells (5×10^7 cells in 10 mL) were stimulated in vitro with peptide (10 μM). On day 6 of culture, the bulk responder populations were tested for specific cytotoxicity. Upon response, the CTL line was then weekly re-stimulated in vitro with 20×10^6 35Gy irradiated spleen cells in the presence of 1 to 0.1 μM peptide and 50 U/mL IL-2 (Proleukin, Chiron Corp.). Cytotoxicity was assayed 6 days after the last stimulation and TNF-α secretion 11-13 days after, with the addition of 50 U/mL IL-2 on day 7. HHD mice transgenic for HLA-A*0201 were used. B7B7 Kd mice and mice transgenic for HLA-A*0301 are used for the study of the HLA-B*0701 and HLA-A*0301 restricted peptides respectively.
# [1] = system: MCF-7 and SAOS tumor cell lines; test: Recognition by murine CTL of epitopes at the surface of human tumor cells, TNF-α secretion assay; format: cell-based; conditions: HLA-A*0201+ Hsp70+ tumor cells
# Text: CTL recognition of tumoral cells is expressed as CTL secretion of TNF-α dosed in supernatant (X Axis, TNF-α ranges from 0 to 1000 pg/ml) after contact with the cells. Upper to lower bars represent the different cells and reagents in contact with CTL, respectively: 2 negative controls (M113, M44), SAOS, MCF-7, MCF-7 blocked with anti-class I (w6/32) antibody before mixed culture, and MCF-7 blocked with an irrelevant antibody before mixed culture.
# TNF-α Secretion Assay. Transfected COS cells on day 4 or 10^5 target tumor cells were plated in 50 μL RPMI 10% FCS and when necessary incubated with 10 μM peptide for 1 hour. In blocking experiments, anti-HLA class I antibody w6/32 or an irrelevant antibody were incubated with target cells for 1 h30. 5×10^4 T cells were then added in 50 μL RPMI 10% FCS and incubated for 6 hours. Each condition was tested in quadruplicates. 50 μL of the supernatant was collected. Standard dilutions were prepared in 50 μL with final doses of TNF-α (kindly provided by I. Apfler, Bender Wien, Austria) ranging from 10^4 to 0.08 pg/mL. On both the supernatants and the standards were added 50 μL of 3×10^4 TNF-α sensitive WEHI-164c13 cells. They were incubated for 16 hours at 37° C. (23). Inhibition of cell proliferation was evaluated by the MTT colorimetric method. Briefly, 50 μL of MTT at 2.5 mg/mL (Sigma-Aldrich) was added and incubated for 4 hours at 37° C. Cells were then lyzed with 100 μL of a pH4.7 33% N,N-dimethyl formamide (Sigma-Aldrich) 20% SDS solution in water. Two hours after cells lysis, OD was measured at 550 nm on a Dynatech MR5000 spectrophotometer. TNF-α quantitation was calculated by linear interpolation with the standard dilutions.
# We studied whether the over-expression of Hsp70 described in certain tumor cell lines was high enough to enable these epitopes to be presented at the surface of tumor cells. We addressed this question with our already available high-avidity murine CTLs, hypothesizing that such a high CTL avidity enables the recognition of the highest-Hsp70 expressing human tumor cells. […]
# [2] = biological target: T1, HLA-A*0201/peptide complex (Homo sapiens, UniProt P04439, D140Y/D185E/D98H/E176V/E277Q/G131W/G231S/I119V/I121R/I166T/I218V/L300P/L318F/N151K/N90K/P208A/P217A/Q86G/Q94H/R138H/R169H/T345S); test: Assessment of peptide/HLA class I complex stability (DC50); format: binding; conditions: half life (DC50) of the HLA-A*0201/peptide complex
# T1 construct: Tap−/− cells expressing the studied HLA-class I molecule; endogenous in cells; host or cells: T2 cells (Tap-/-, HLA-A*0201)
# Protocol: Assessment of Peptide/HLA class I Complex Stability. Tap−/− cells (10^6/mL) were incubated overnight with 100 μM of each peptide in serum-free RPMI 1640 medium supplemented with 100 ng/mL of […] at 37° C. Cells were then washed four times to remove free peptide, incubated with Brefeldin A (10 μg/mL) for 1 hour to block cell surface expression of newly synthesized HLA molecules, washed and incubated at 37° C. for 0, 2, 4 or 6 hours. Subsequently, cells were stained with the HLA specific mAb followed by FITC conjugated goat anti mouse Ig mAb. For each time point, peptide induced HLA expression was calculated as: Mean fluorescence of peptide preincubated cells—Mean fluorescence of cells treated in similar conditions in the absence of peptide. DC50 (dissociation complex; DC) was defined as the time required for the loss of 50% of the HLA-A*0201/peptide complexes stabilized at t=0.
# The affinity of each peptide was assayed experimentally by determination of the Relative Affinity: the necessary peptide dose to stabilise a reference quantity of HLA-A*0201 molecules at the surface of T2 cells; and the stability of each peptide was assayed by determination of the half-life of the peptide/HLA-A*0201 molecule complex (DC50: dissociation complex 50).
Sequence,induction of specific cytotoxic T cell immune response in HHD mice (HHD mice),presentation of the epitope at the surface of Hsp70 over-expressing human tumor cells [1],Stability (hrs) [2] [h hrs]
YLGYPVTNAV [HSP 134(10)],capable of generating a specific cytotoxic T cell immune response,,
LLLLDVAPL [HSP 391],capable of generating a specific cytotoxic T cell immune response,demonstrated,>6
LMGDKSENV [HSP 380],capable of generating a specific cytotoxic T cell immune response,demonstrated,4
